Inhibition and IC50 data for one compound are collected here from US11339161B2, “Triazolo pyridines as modulators of gamma-secretase” (Boehringer Ingelheim International GmbH, priority 2017, dated 2022).

pIC50: −log10 of the molar value. Read-outs that look alike come from different tables or passages of the source.

For test [1], the target named is T1, MAP4K2 (GCK) (Homo sapiens, UniProt Q12851).
T1 sequence (Q12851 1-820): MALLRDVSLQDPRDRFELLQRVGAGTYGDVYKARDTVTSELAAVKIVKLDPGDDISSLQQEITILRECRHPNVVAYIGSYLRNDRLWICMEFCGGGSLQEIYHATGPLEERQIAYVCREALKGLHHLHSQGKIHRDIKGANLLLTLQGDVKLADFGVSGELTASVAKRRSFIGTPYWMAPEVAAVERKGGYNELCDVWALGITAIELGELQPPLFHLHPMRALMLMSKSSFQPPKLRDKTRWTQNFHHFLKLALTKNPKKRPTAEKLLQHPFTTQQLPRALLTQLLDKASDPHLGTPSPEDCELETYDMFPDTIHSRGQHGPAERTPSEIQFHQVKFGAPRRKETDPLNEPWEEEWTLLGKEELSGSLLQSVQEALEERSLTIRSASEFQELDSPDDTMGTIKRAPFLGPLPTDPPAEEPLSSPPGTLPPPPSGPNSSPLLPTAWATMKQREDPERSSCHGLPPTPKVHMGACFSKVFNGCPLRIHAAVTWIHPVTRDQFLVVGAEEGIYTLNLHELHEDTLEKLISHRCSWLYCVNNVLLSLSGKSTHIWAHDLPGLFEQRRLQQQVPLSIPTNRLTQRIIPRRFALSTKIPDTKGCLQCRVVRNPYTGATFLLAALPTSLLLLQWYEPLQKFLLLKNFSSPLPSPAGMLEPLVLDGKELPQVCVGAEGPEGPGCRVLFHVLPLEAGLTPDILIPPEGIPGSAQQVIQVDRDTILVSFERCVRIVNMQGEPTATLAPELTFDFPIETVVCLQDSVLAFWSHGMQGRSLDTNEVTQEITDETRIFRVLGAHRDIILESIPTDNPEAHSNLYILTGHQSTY
The test can be described thus: Z'-LYTE SelectScreen biochemical kinase assay MAP4K2 (GCK). An excerpt: Thermo Fisher Scientific SelectScreen™ Biochemical Kinase Profiling Service Z′-LYTE™ Screening Protocol and Assay Conditions Assay Theory
The […] biochemical assay employs a fluorescence-based, coupled-enzyme format and is based on the differential sensitivity of phosphorylated and non-phosphorylated peptides to proteolytic cleavage. The peptide substrate is labeled with two fluorophores—one at each end—that make up a FRET pair. In the primary reaction, the kinase transfers the gamma-phosphate of ATP to a single tyrosine, serine or threonine residue in a synthetic FRET-peptide. In the secondary reaction, a site-specific protease recognizes and cleaves non-phosphorylated FRET-peptides. Phosphorylation of FRET-peptides suppresses cleavage by the Development Reagent. Cleavage disrupts FRET between the donor (i.e., coumarin) and acceptor (i.e., fluorescein) fluorophores on the FRET-peptide, whereas uncleaved, phosphorylated FRET-peptides maintain FRET. A ratiometric method, which calculates the ratio (Emission Ratio=Coumarin emission (445 nm)/Fluorescein emission (520 nm)) of donor emission to acceptor emission after excitation of the donor fluorophore at 400 nm, is used to quantitate reaction progress, as shown in the equation below. A significant benefit of this ratiometric method for quantitating reaction progress is the elimination of well-to-well variations in FRET-peptide concentration and signal intensities. As a result, the assay yields very high Z′-factor values (>0.7) at a low percent phosphorylation. Both cleaved and uncleaved FRET-peptides contribute to the fluorescence signals and therefore to the Emission Ratio. The extent of phosphorylation of the FRET-peptide can be calculated from the Emission Ratio. The Emission Ratio will remain low if the FRET-peptide is phosphorylated (i.e., no kinase inhibition) and will be high if the FRET-peptide is non-phosphorylated (i.e., kinase inhibition).
The Test Compounds are screened in 1% DMSO (final) in the well. For 10 point titrations, 3-fold serial dilutions are conducted from the starting concentration of the customer's choosing.
All Peptide/Kinase Mixtures are diluted to a 2× working concentration in the appropriate Kinase Buffer (see section Kinase Specific Assay Conditions for a complete description).
All ATP Solutions are diluted to a 4× working concentration in Kinase Buffer (50 mM HEPES pH 7.5, 0.01% BRIJ-35, 10 mM MgCl2, 1 mM EGTA). ATP Km apparent is previously determined using a Z″-LYTE assay.
The Development Reagent is diluted in Development Buffer (see section Kinase-Specific Assay Conditions—Direct and Cascade for a complete description).
Bar-coded Corning, low volume NBS, black 384-well plate (Corning Cat. #4514) • 1. 100 nL—100× Test Compound in 100% DMSO • 2. 2.4 μL—Kinase buffer • 3. 5 μL—2× Peptide/Kinase Mixture • 4. 2.5 μL—4×ATP Solution • 5. 30—second plate shake • 6. 60—minute Kinase Reaction incubation at room temperature • 7. 5 μL—Development Reagent Solution • 8. 30—second plate shake • 9. 60—minute Development Reaction incubation at room temperature • 10. Read on fluorescence plate reader and analyze the data Z′-LYTE Assay Controls
SelectScreen Kinase Profiling Service uses XLfit from IDBS. The dose response curve is curve fit to model number 205 (sigmoidal dose-response model).
The 2×MAP4K2 (GCK)/Ser/Thr 07 mixture is prepared in 50 mM HEPES pH 7.5, 0.01% BRIJ-35, 10 mM MgCl2, 1 mM EGTA. The final 10 μL Kinase Reaction consists of 0.11-3 ng MAP4K2 (GCK) and 2 μM Ser/Thr 07 in 50 mM HEPES pH 7.5, 0.01% BRIJ-35, 10 mM MgCl2, 1 mM EGTA. After the 1 hour Kinase Reaction incubation, 5 μL of a 1:45000 dilution of Development Reagent A is added.

In test [2] the test system is Aβ42 production. Kind of test: Inhibition of Aβ42 production in H4 neuroglioma cells stably expressing human APP695 (MSD electrochemiluminescence). The format is cell-based. As to conditions: H4 neuroglioma cells expressing human APP695, 22 hours incubation; Table 4a.

The inhibition is the share of the control response that was lost under treatment. In general, pIC50 refers to the negative decadic logarithm of the IC50, by convention in mol/L. Low readings indicate a large IC50, high ones a small IC50. For the compound `CCn1ncc2c1CC[C@@H](Nc1nc3c(-c4ccc(F)c(Cl)c4)cccn3n1)C2` [Example R-61, (R)-[8-(3-Chloro-4-fluoro-phenyl)-[1,2,4]triazolo[1,5-a]pyridine-2-yl]-(1-ethyl-4,5,6,7-tetrahydro-1H-indazol-5-yl)-amine], the inhibition at 10 µM in test [1] (10 μmolar compound concentration, ATP at Km app, read-out: MAP4K2 (GCK) inhibition) is less than 40%; in test [1] (read-out: % Inhibition mean MAP4K2 (GCK)), 3%. The pIC50 in test [2] is 8.05.
